Among the data in patent publication US9296734B2 (AMGEN INC., priority 2013, dated 2016) are IC50 values, retold here.

For orientation: IC50 means the concentration needed to halve the response being measured.

Where two headings read alike, the source gives them in different places.

In one assay the target is Cathepsin D (Cat D) (Homo sapiens (Human), UniProt P07339). As to the kind of experiment: In vitro enzymatic Cathepsin D (Cat D) FRET assay. It is filed as biochemical. The note with it: read-out: CatD IC50. Summed up:
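CHO-expressed recombinant Cat D cleaves a fluorophore/quencher FRET peptide (20 nM) in 0.05 M citrate pH 3.5, 5 mM CHAPS, 10% DMSO final, over 1 h. Tris addition neutralizes pH to stop the reaction; fluorescence read at excitation 500 nm, emission 580 nm.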

Assay [1] deals with Aβ40 in conditioned medium of cells stably expressing Amyloid Precursor Protein (APP). As to the kind of experiment: In vitro BACE cell-based assay (Aβ40 sandwich ELISA). Conditions: Homo sapiens. The method, then: In Vitro BACE Cell-Based Assay
The cell-based assay measures inhibition or reduction of Aβ40 in conditioned medium of test compound treated cells expressing amyloid precursor protein.
Cells stably expressing Amyloid Precursor Protein (APP) were plated at a density of 40K cells/well in 96 well plates (Costar). The cells were cultivated for 24 hours at 37° C. and 5% CO2 in DMEM supplemented with 10% FBS. The test compounds were then added to cells in 10-point dose response concentrations with the starting concentration being either 100 μM or 10 μM. The compounds were diluted from stock solutions in DMSO and the final DMSO concentration of the test compounds on cells was 0.1%. After 24 h of incubation with the test compounds the supernatant conditioned media was collected and the Aβ 40 levels were determined using a sandwich ELISA. The IC50 of the compound was calculated from the percent of control or percent inhibition of Aβ 40 as a function of the concentration of the test compound.
The sandwich ELISA to detect Aβ 40 was performed in 96 well microtiter plates, which were pre-treated with goat anti-rabbit IgG (Pierce). The capture and detecting antibody pair that were used to detect Aβ 40 from cell supernatants were affinity purified pAb40 (Biosource) and biotinylated 6E10 (Signet Labs Inc.), respectively. The optimal concentration for the pAb40 antibody was 3 μg/ml in Superblock/TBS (Pierce) that was supplemented with 0.05% Tween 20 (Sigma).
Cellular supernatants were incubated with the capture antibody for 3 h at 4° C., followed by 3 wash steps in TBS-tween (0.05%). The detecting antibody incubation was for 2 h at 4° C., again followed by the wash steps as described previously. The final readout of the ELISA is Time-Resolved Fluorescence (counts per minute) using Delfia reagents Streptavidin-Europium and Enhancement solutions (Perkin Elmer) and the Victor 2 multilabel counter (Perkin Elmer).

The target of assay [2] is Beta Secretase enzyme (BACE) (Homo sapiens (Human), UniProt P56817). As to the kind of experiment: In vitro enzymatic BACE FRET assay. Type of assay: biochemical. Conditions: read-out: BACE 1 FRET assay IC50. The method, then: In Vitro Enzymatic BACE FRET (Fluorescence Resonance Energy Transfer) Assay (Enzyme Assay Data in the Example Table I)
The assay buffer used in this screen is 0.05 M acetate, pH 4.2, 10% DMSO final, 100 uM genapol (which is a nonionic detergent, below its Critical Micelle Concentration). […] This assay is effectively started by the addition of FRET substrate (50 nM) and the combination is incubated for one hour. The FRET assay is terminated with by addition of Tris buffer, which raises the pH to neutrality, and the fluorescence is determined. The FRET substrate is a peptide with commercially available fluorophore and quencher, on opposite sides of the BACE cleavage site.

Setting [3] is: average IC50, cathepsin D enzyme assay.
Setting [4] is: HEK293, average IC50, HEK cell assay, read-out: HEK cell assay IC50.
Where [5] appears, read: average IC50, BACE enzyme assay.
Where [6] appears, read: HEK293, average IC50, HEK cells, read-out: HEK cell assay IC50.

Sequence of Cathepsin D (Cat D) (P07339 65-412, species assumed): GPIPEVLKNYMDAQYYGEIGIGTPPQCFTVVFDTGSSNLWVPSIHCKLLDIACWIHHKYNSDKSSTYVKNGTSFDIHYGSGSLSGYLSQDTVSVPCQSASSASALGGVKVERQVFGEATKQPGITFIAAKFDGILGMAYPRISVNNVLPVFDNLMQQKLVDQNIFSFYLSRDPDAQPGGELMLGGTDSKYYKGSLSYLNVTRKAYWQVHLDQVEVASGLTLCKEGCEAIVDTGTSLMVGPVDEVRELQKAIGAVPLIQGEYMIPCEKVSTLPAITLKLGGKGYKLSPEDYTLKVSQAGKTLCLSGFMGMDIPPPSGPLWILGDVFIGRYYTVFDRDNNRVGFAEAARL
Sequence of Beta Secretase enzyme (BACE) (P56817 46-501): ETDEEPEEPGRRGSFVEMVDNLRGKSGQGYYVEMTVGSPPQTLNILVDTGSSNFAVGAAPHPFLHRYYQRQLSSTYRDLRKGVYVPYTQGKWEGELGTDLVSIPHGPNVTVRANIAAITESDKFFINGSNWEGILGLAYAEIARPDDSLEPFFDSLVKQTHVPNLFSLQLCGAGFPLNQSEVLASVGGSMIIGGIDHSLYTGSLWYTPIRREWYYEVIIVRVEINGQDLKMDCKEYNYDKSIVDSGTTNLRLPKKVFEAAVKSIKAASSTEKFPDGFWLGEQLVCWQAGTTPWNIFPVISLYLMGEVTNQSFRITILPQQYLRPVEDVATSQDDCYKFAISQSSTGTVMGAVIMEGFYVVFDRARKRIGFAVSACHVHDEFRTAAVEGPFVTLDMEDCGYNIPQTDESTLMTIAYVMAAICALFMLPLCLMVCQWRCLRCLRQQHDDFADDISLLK

With `C[C@@]1(c2cc(Nc3nc4ccc(Cl)cc4o3)ccc2F)C[C@@H](C(F)(F)F)OC(N)=N1` [Example 29, N-(3-((4S,6S)-2-amino-4-methyl-6-(trifluoromethyl)-5,6-dihydro-4H-1,3-oxazin-4-yl)-4-fluorophenyl)-6-chlorobenzo[d]oxazol-2-amine], the IC50 on Cathepsin D (Cat D) (setting [3]) was 210 µM; in assay [1] (setting [4]), 3.01 µM; in assay [2] (setting [5]) it was more than 40 µM.
With `C[C@@]1(c2cc(Nc3nc4cc(Cl)ccc4o3)ccc2F)C[C@@H](C(F)(F)F)OC(N)=N1` [Example 30, N-(3-((4S,6S)-2-amino-4-methyl-6-(trifluoromethyl)-5,6-dihydro-4H-1,3-oxazin-4-yl)-4-fluorophenyl)-5-chlorobenzo[d]oxazol-2-amine], the IC50 at Cathepsin D (Cat D) (setting [3]) was 162 µM; in assay [1] (setting [4]) it was 2.88 µM; in assay [2] (setting [5]), 26.8 µM.
The corresponding values for `NC1=N[C@](CF)(c2cc(NC(=O)c3ncc(Cl)cc3F)ccc2F)C[C@@H](C(F)(F)F)O1` [Example 34, N-(3-((4S,6S)-2-amino-4-(fluoromethyl)-6-(trifluoromethyl)-5,6-dihydro-4H-1,3-oxazin-4-yl)-4-fluorophenyl)-5-chloro-3-fluoropicolinamide] are more than 400 µM, 0.042 µM and 0.051 µM.
The corresponding values for `CC#CCOc1cnc(C(=O)Nc2ccc(F)c([C@]3(CF)C[C@@H](C(F)(F)F)OC(N)=N3)c2)cn1` [Example 39, N-(3-((4S,6S)-2-amino-4-(fluoromethyl)-6-(trifluoromethyl)-5,6-dihydro-4H-1,3-oxazin-4-yl)-4-fluorophenyl)-5-(but-2-yn-1-yloxy)pyrazine-2-carboxamide] are more than 400 µM, 0.0032 µM and 0.0007 µM.
For `NC1=N[C@](CF)(c2cc(NC(=O)c3ncc(C(F)F)cc3Cl)ccc2F)C[C@@H](C(F)(F)F)O1` [Example 40, N-(3-((4S,6S)-2-amino-4-(fluoromethyl)-6-(trifluoromethyl)-5,6-dihydro-4H-1,3-oxazin-4-yl)-4-fluorophenyl)-3-chloro-5-(difluoromethyl)picolinamide], the IC50 on Cathepsin D (Cat D) (setting [3]) was more than 400 µM; in assay [1] (setting [4]) it was 0.105 µM; in assay [2] (setting [5]), 0.13 µM.
The corresponding values for `NC1=N[C@](CF)(c2cc(NC(=O)c3ccc(C(F)F)cn3)ccc2F)C[C@@H](C(F)(F)F)O1` [Example 41, N-(3-((4S,6S)-2-amino-4-(fluoromethyl)-6-(trifluoromethyl)-5,6-dihydro-4H-1,3-oxazin-4-yl)-4-fluorophenyl)-5-(difluoromethyl)picolinamide] are more than 400 µM, 0.088 µM and 0.072 µM.
Turning to `Cc1cc(OC(F)F)cnc1C(=O)Nc1ccc(F)c([C@]2(CF)C[C@@H](C(F)(F)F)OC(N)=N2)c1` [Example 42, N-(3-((4S,6S)-2-amino-4-(fluoromethyl)-6-(trifluoromethyl)-5,6-dihydro-4H-1,3-oxazin-4-yl)-4-fluorophenyl)-5-(difluoromethoxy)-3-methylpicolinamide], the half-inhibitory concentration (IC50) was more than 400 µM on Cathepsin D (Cat D) (setting [3]), 0.051 µM in assay [1] (setting [4]) and 0.026 µM in assay [2] (setting [5]).
For the molecule `COc1cc(Cl)cnc1C(=O)Nc1ccc(F)c([C@]2(CF)C[C@@H](C(F)(F)F)OC(N)=N2)c1` [Example 47], the IC50 at Cathepsin D (Cat D) (average IC50) was more than 400 µM; in assay [1] (setting [6]) it was 0.0679 µM; in assay [2] (average IC50), 0.0564 µM.
Consider `COc1cc(C#N)cnc1C(=O)Nc1ccc(F)c([C@]2(CF)C[C@@H](C(F)(F)F)OC(N)=N2)c1` [Example 48, N-(3-((4S,6S)-2-amino-4-(fluoromethyl)-6-(trifluoromethyl)-5,6-dihydro-4H-1,3-oxazin-4-yl)-4-fluorophenyl)-5-cyano-3-methoxypicolinamide], for which the IC50 at Cathepsin D (Cat D) (average IC50) was more than 400 µM; in assay [1] (setting [6]), 0.0322 µM; in assay [2] (average IC50), 0.0418 µM.
For `NC1=N[C@](CF)(c2cc(NC(=O)c3ccc(C#CC4CC4)cn3)ccc2F)C[C@@H](C(F)(F)F)O1` [Example 53, N-(3-((4S,6S)-2-amino-4-(fluoromethyl)-6-(trifluoromethyl)-5,6-dihydro-4H-1,3-oxazin-4-yl)-4-fluorophenyl)-5-(cyclopropylethynyl)picolinamid], the IC50 is 2990 µM on Cathepsin D (Cat D) (setting [3]), 0.196 µM in assay [1] (setting [4]) and 0.023 µM in assay [2] (setting [5]).
For the molecule `NC1=N[C@](CF)(c2cc(Nc3ncc(F)c4cc(C#CC5CC5)cnc34)ccc2F)C[C@@H](C(F)(F)F)O1` [Example 54, (4S,6S)-4-(5-((3-(cyclopropylethynyl)-5-fluoro-1,7-naphthyridin-8-yl)amino)-2-fluorophenyl)-4-(fluoromethyl)-6-(trifluoromethyl)-5,6-dihydro-4H-1,3-oxazin-2-amine], the IC50 on Cathepsin D (Cat D) (setting [3]) is more than 133 µM; in assay [1] (setting [4]) it was 2.33 µM; in assay [2] (setting [5]) it was 0.033 µM.
The corresponding values for `NC1=N[C@](CF)(c2cc(Nc3nccc4cc(C#CC5CC5)cnc34)ccc2F)C[C@@H](C(F)(F)F)O1` [Example 55, (4S,6S)-4-(5-((3-(cyclopropylethynyl)-1,7-naphthyridin-8-yl)amino)-2-fluorophenyl)-4-(fluoromethyl)-6-(trifluoromethyl)-5,6-dihydro-4H-1,3-oxazin-2-amine] are more than 400 µM, 1.02 µM and 0.098 µM.
Take `NC1=N[C@](CF)(c2cc(NC(=O)c3ccc(F)cn3)ccc2F)C[C@@H](C(F)(F)F)O1` [Example 57, N-(3-((4S,6S)-2-amino-4-(fluoromethyl)-6-(trifluoromethyl)-5,6-dihydro-4H-1,3-oxazin-4-yl)-4-fluorophenyl)-5-fluoropicolinamide]: the IC50 was found to be 4060 µM at Cathepsin D (Cat D) (average IC50), 0.106 µM in assay [1] (setting [6]) and 0.0725 µM in assay [2] (average IC50).
The corresponding values for `Cc1cc(Cl)cnc1C(=O)Nc1cnc(F)c([C@]2(C)C[C@@H](C(F)(F)F)OC(N)=N2)c1` [Example 61, N-(5-((4S,6S)-2-amino-4-methyl-6-(trifluoromethyl)-5,6-dihydro-4H-1,3-oxazin-4-yl)-6-fluoropyridin-3-yl)-5-chloro-3-methylpicolinamide] are more than 400 µM, 0.0391 µM and 0.0552 µM.
Take `C[C@@]1(c2cc(NC(=O)c3ccc(F)cn3)cnc2F)C[C@@H](C(F)(F)F)OC(N)=N1` [Example 64, N-(5-((4S,6S)-2-amino-4-methyl-6-(trifluoromethyl)-5,6-dihydro-4H-1,3-oxazin-4-yl)-6-fluoropyridin-3-yl)-5-fluoropicolinamide]: the 50% inhibitory concentration (IC50) at Cathepsin D (Cat D) (setting [3]) is more than 400 µM; in assay [1] (setting [4]), 0.038 µM; in assay [2] (setting [5]) it was 0.206 µM.
`C[C@@]1(c2cc(NC(=O)c3ccc(OCC(F)(F)F)cn3)cnc2F)C[C@@H](C(F)(F)F)OC(N)=N1` [Example 65, N-(5-((4S,6S)-2-amino-4-methyl-6-(trifluoromethyl)-5,6-dihydro-4H-1,3-oxazin-4-yl)-6-fluoropyridin-3-yl)-5-(2,2,2-trifluoroethoxy)picolinamide]: the IC50 at Cathepsin D (Cat D) (setting [3]) came to 150 µM; in assay [1] (setting [4]), 0.124 µM; in assay [2] (setting [5]) it was 0.079 µM.
Turning to `C[C@@]1(c2cc(NC(=O)c3ncc(C#N)cc3Cl)cnc2F)C[C@@H](C(F)(F)F)OC(N)=N1` [Example 66, N-(5-((4S,6S)-2-amino-4-methyl-6-(trifluoromethyl)-5,6-dihydro-4H-1,3-oxazin-4-yl)-6-fluoropyridin-3-yl)-3-chloro-5-cyanopicolinamide], the IC50 was more than 400 µM at Cathepsin D (Cat D) (average IC50); 0.0351 µM in assay [1] (HEK293, read-out: HEK cell assay IC50); 0.0605 µM in assay [2] (average IC50).
`Cc1cc(C#N)cnc1C(=O)Nc1cnc(F)c([C@]2(C)C[C@@H](C(F)(F)F)OC(N)=N2)c1` [Example 67, N-(5-((4S,6S)-2-amino-4-methyl-6-(trifluoromethyl)-5,6-dihydro-4H-1,3-oxazin-4-yl)-6-fluoropyridin-3-yl)-5-cyano-3-methylpicolinamide]: the IC50 at Cathepsin D (Cat D) (average IC50) is more than 400 µM; in assay [1] (setting [6]), 0.023 µM; in assay [2] (average IC50), 0.0348 µM.
